target: T1, Z A1AT (Homo sapiens, UniProt P01009, E366K); assay: A1AT cell secretion assay using HEK-Z cells (A1AT ELISA of supernatants); type: cell-based; conditions: 48 h, read-out: Median A1AT % increase over vehicle at 300 nM
T1 construct: expressed in transfected cells; host or cells: HEK-Z cells (human embryonic kidney cell line)
Description: HEK-Z cells, a human embryonic kidney cell line stably transfected with the human Z A1AT gene, were plated into 96 well plates (3.0×10^5 cells/ml with 200 μl of media/well) overnight at 37° C. in a humidified atmosphere containing 5% CO2. Following incubation cells were washed with 200 μl serum-free media three times and media was replaced with treatments in quadruplicate using serum free media containing either vehicle, 10 μM suberanilohydroxamic acid (SAHA) or a compound of the invention ([…]) for 48 h in a 37° C. incubator in a final volume of 200 μl. At the end of the incubation step the supernatants were removed from the wells, centrifuged at 1000×g at 4° C. for 10 min and were assayed for human A1AT levels by ELISA (Human Serpin A1/α1-antitrypsin duo set ELISA, R& D Systems, DY1268) per manufacturer's instructions.
Briefly, a 96 well plate was coated with human A1AT capture antibody overnight at room temperature (1:180 dilution from stock, 100 μl final volume/well). The capture antibody was then removed and wells washed three times with 300 μl wash buffer (0.05% Tween 20 in PBS) and then 200 μl reagent diluent ([…]) was incubated in each well for 1 h at room temperature. Diluted samples, standards (125, 250, 500, 1000, 2000, 4000 and 8000 pg/ml A1AT) or blanks were then added to each well in duplicate and the plates were covered with a plate sealer and left at room temperature for 2 h. At the end of the sample incubation step, samples were removed and all wells washed as previously and 100 μl detection antibody (1:180 dilution from stock) was added to each well and incubated for a further 2 h at room temperature. Following incubation with detection antibody, supernatant was removed and wells were washed as previously and 100 μl streptavidin-HRP solution (1:200 dilution from stock) was added to each well for 20 min in the dark. After which, 50 μl stop solution (2M H2SO4) was added and optical density (OD) of each well was read at 450 nm with 570 nm blank subtracted from each well using a microplate reader. A 4 parameter logistic curve was constructed using GraphPad Prism 7 and A1AT concentrations were determined in each sample by interpolation from a standard curve and multiplying by the appropriate dilution factor.

T1 sequence (P01009 25-418 E366K): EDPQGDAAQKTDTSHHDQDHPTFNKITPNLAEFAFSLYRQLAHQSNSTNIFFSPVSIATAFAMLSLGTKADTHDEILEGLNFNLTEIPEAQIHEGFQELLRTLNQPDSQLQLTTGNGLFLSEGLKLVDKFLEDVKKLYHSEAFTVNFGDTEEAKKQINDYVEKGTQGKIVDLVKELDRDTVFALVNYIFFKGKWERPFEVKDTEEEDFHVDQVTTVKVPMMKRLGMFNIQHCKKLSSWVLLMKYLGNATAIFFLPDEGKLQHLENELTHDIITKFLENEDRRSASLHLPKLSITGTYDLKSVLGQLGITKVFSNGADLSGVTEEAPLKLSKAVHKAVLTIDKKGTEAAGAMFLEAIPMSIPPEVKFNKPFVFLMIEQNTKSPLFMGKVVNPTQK

| SMILES | activation at 0.3 µM |
| --- | --- |
| CNC(=O)c1ccc(Cn2cnc3ccccc3c2=O)cc1 [Example 5, N-Methyl-4-((4-oxoquinazolin-3(4H)-yl)methyl)benzamide] | 180% |
| CC(C)N(C)C(=O)c1ccc(Cn2cnc3ccccc3c2=O)cc1 [Example 15, N-isopropyl-N-methyl-4-((4-oxoquinazolin-3(4H)-yl)methyl)benzamide] | 190% |
| CN(CC(F)(F)F)C(=O)c1ccc(Cn2cnc3ccccc3c2=O)cc1 [Example 17, N-methyl-4-((4-oxoquinazolin-3(4H)-yl)methyl)-N-(2,2,2-trifluoroethyl)benzamide] | 170% |
| CN(Cc1ccccc1)C(=O)c1ccc(Cn2cnc3ccccc3c2=O)cc1 [Example 16, N-benzyl-N-methyl-4-((4-oxoquinazolin-3(4H)-yl)methyl)benzamide] | 160% |

same assay, conditions: HEK-Z cells, 300 nM, 48 h, secreted human A1AT in supernatant by ELISA; read-out: Median A1AT % increase over vehicle at 300 nM

| SMILES | activation at 0.3 µM |
| --- | --- |
| O=C(NCc1ccc(F)cc1)c1ccc(Cn2cnccc2=O)cc1 [Example 13, N-(4-fluorobenzyl)-4-((6-oxopyrimidin-1(6H)-yl)methyl)benzamide] | 190% |
| CN(Cc1ccccc1)C(=O)c1ccc(Cn2cnccc2=O)cc1 [Example 8, N-benzyl-N-methyl-4-((6-oxopyrimidin-1(6H)-yl)methyl)benzamide] | 150% |
| CNC(=O)c1ccc(Cn2cnc3ccc(Cl)cc3c2=O)cc1 [Example 6, 4-((6-chloro-4-oxoquinazolin-3(4H)-yl)methyl)-N-methylbenzamide] | 200% |
| O=C(c1ccc(Cn2cnccc2=O)cc1)N1CCOCC1 [Example 3, 3-(4-(Morpholine-4-carbonyl)benzyl)pyrimidin-4(3H)-one] | 280% |
| Cc1ncn(Cc2ccc(C(=O)N(C)C)cc2)c(=O)c1C [Example 18, 4-((4,5-dimethyl-6-oxopyrimidin-1(6H)-yl)methyl)-N,N-dimethylbenzamide] | 170% |

The next lines start with the values.

| activation at 0.3 µM | SMILES |
| --- | --- |
| 160% | CC(C)N(C)C(=O)c1ccc(Cn2cnccc2=O)cc1 [Example 7, N-isopropyl-N-methyl-4-((6-oxopyrimidin-1(6H)-yl)methyl)benzamide] |
| 230% | CCN(CC)C(=O)c1ccc(Cn2cnccc2=O)cc1 [Example 11, N,N-diethyl-4-((6-oxopyrimidin-1(6H)-yl)methyl)benzamide] |
| 330% | CCN(C)C(=O)c1ccc(Cn2cnccc2=O)cc1 [Example 1, N-Ethyl-N-methyl-4-((6-oxopyrimidin-1(6H)-yl)methyl)benzamide] |
| 170% | CN(CC(F)(F)F)C(=O)c1ccc(Cn2cnccc2=O)cc1 [Example 9, N-methyl-4-((6-oxopyrimidin-1(6H)-yl)methyl)-N-(2,2,2-trifluoroethyl)benzamide] |
| 210% | CC(C)NC(=O)c1ccc(Cn2cnccc2=O)cc1 [Example 12, N-isopropyl-4-((6-oxopyrimidin-1(6H)-yl)methyl)benzamide] |
| 350% | O=C(c1ccc(Cn2cnccc2=O)cc1)N1CCCC1 [Example 2, 3-(4-(Pyrrolidine-1-carbonyl)benzyl)pyrimidin-4(3H)-one] |
| 180% | O=C(NCC(F)(F)F)c1ccc(Cn2cnccc2=O)cc1 [Example 14, 4-((6-oxopyrimidin-1(6H)-yl)methyl)-N-(2,2,2-trifluoroethyl)benzamide] |
| 390% | CN1CCN(C(=O)c2ccc(Cn3cnccc3=O)cc2)CC1 [Example 4, 3-(4-(4-Methylpiperazine-1-carbonyl)benzyl)pyrimidin-4(3H)-one] |
| 260% | NC(=O)c1ccc(Cn2cnccc2=O)cc1 [Example 10, 4-((6-oxopyrimidin-1(6H)-yl)methyl)benzamide] |
